Test results reported in US11566007B2, “Ras inhibitors” (Revolution Medicines, Inc., priority 2019, dated 2023).
Where “and” joins values, the source holds several entries; their conditions need not be identical. Equal entries are not always repeated. Where two headings read alike, the source gives them in different places.

Legend:
KRAS G12D = KRAS G12D (Homo sapiens (Human), UniProt P01116+P62937, G12D); assay: Ras-Raf (BRAF RBD) disruption / FRET / MOA assay, KRAS G12D; type: biochemical; conditions: Ras-Raf disruption/FRET/MOA assay; class symbols; read-out: KRAS G12D FRET data IC50
Sequence of KRAS G12D (P01116-2 other isoform, or with tags, fused parts or gaps G12D): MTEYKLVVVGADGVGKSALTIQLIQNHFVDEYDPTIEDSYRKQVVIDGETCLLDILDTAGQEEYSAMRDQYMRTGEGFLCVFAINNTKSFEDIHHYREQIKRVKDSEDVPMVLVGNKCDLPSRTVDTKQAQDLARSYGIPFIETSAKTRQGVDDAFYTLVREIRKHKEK
Sequence of KRAS G12D (P62937 whole entry): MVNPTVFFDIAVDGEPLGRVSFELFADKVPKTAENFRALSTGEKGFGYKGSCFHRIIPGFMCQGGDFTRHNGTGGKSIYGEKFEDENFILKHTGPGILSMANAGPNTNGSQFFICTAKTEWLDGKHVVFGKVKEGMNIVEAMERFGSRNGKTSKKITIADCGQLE
Outline: (§1)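 TR-FRET read-out: a drop in ratio relative to DMSO wells marks disruption of the Ras:RAF complex, reported as IC50. Compounds (3-fold series, 10 points, top 30 μM final) incubated 3 h at 25° C before Eu-anti-His 10 nM and APC-anti-GST 50 nM, 1.5 h more.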

KRAS Q61H = KRAS Q61H (Homo sapiens (Human), UniProt P01116+P62937, Q61H); assay: Ras-Raf (BRAF RBD) disruption / FRET / MOA assay, KRAS Q61H; type: biochemical; conditions: Ras-Raf disruption/FRET/MOA assay; class symbols; read-out: KRAS Q61H FRET data IC50
Sequence of KRAS Q61H (P01116-2 other isoform, or with tags, fused parts or gaps Q61H): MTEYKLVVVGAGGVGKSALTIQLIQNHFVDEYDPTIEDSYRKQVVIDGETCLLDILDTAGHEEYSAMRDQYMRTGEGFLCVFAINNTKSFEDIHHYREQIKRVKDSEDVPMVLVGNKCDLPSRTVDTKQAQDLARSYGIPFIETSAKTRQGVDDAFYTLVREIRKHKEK
Sequence of KRAS Q61H (P62937 whole entry, canonical isoform): as the sequence (P62937 whole entry) above
Description: (§2) The purpose of this biochemical assay is to measure the ability of test compounds to facilitate ternary complex formation between a nucleotide-loaded Ras isoform and cyclophilin A; the resulting ternary complex disrupts binding to a BRAF^RBD construct, inhibiting Ras signaling through a RAF effector.
(§3) […]. Compound is present in plate wells as a 10-point 3-fold dilution series starting at a final concentration of 30 μM. After incubation at 25° C. for 3 hours, a mixture of Anti-His Eu-W1024 and anti-GST allophycocyanin is then added to assay sample wells at final concentrations of 10 nM and 50 nM, respectively, and the reaction incubated for an additional 1.5 hours. […] Compounds that facilitate disruption of a Ras:RAF complex are identified as those eliciting a decrease in the TR-FRET ratio relative to DMSO control wells.
(§4) Note—The following protocol describes a procedure for monitoring disruption of K-Ras G12C (GMP-PNP) binding to BRAF^RBD by a compound of the invention. This protocol may also be executed substituting other Ras proteins or nucleotides.
(§5) The purpose of this biochemical assay was to measure the ability of test compounds to facilitate ternary complex formation between a nucleotide-loaded K-Ras isoform and Cyclophilin A; the resulting ternary complex disrupts binding to a BRAF^RBD construct, inhibiting K-Ras signaling through a RAF effector. Data is reported as IC50 values.
as §3, with “Compound was” for “Compound is”, “allophycocyanin was” for “allophycocyanin is”, “a K-Ras:RAF” for “a Ras:RAF”, “complex were” for “complex are”

NRAS Q61R = NRAS Q61R (Homo sapiens (Human), UniProt P01111+P62937, Q61R); assay: Ras-Raf (BRAF RBD) disruption / FRET / MOA assay, NRAS Q61R; type: biochemical; conditions: NRAS Q61R; Ras-Raf disruption/FRET/MOA assay; read-out: IC50* NRAS Q61R FRET data
Sequence of NRAS Q61R (P01111 whole entry Q61R): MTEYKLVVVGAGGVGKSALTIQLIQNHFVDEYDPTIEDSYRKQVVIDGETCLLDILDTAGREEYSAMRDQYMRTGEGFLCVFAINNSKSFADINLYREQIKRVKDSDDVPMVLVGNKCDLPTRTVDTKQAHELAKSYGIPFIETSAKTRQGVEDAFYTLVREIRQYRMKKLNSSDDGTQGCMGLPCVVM
Sequence of NRAS Q61R (P62937 whole entry): as the sequence (P62937 whole entry) above
Description: as §2, §3, §4, §5
as §3, with “Compound was” for “Compound is”, “allophycocyanin was” for “allophycocyanin is”, “a K-Ras:RAF” for “a Ras:RAF”, “complex were” for “complex are”

NRAS Q61K = NRAS Q61K (Homo sapiens (Human), UniProt P01111+P62937, Q61K); assay: Ras-Raf (BRAF RBD) disruption / FRET / MOA assay, NRAS Q61K; type: biochemical; conditions: NRAS Q61K; Ras-Raf disruption/FRET/MOA assay; read-out: IC50* NRAS Q61K FRET data
Sequence of NRAS Q61K (P01111 whole entry Q61K): as the sequence (P01111 whole entry Q61R) above, with R61K counted along it
Sequence of NRAS Q61K (P62937 whole entry): as the sequence (P62937 whole entry) above
Description: as §2, §3, §4, §5
as §3, with “Compound was” for “Compound is”, “allophycocyanin was” for “allophycocyanin is”, “a K-Ras:RAF” for “a Ras:RAF”, “complex were” for “complex are”

NRAS G12C = NRAS G12C (Homo sapiens (Human), UniProt P01111+P62937, G12C); assay: Ras-Raf (BRAF RBD) disruption / FRET / MOA assay, NRAS G12C; type: biochemical; conditions: read-out: IC50* NRAS G12C FRET data
Sequence of NRAS G12C (P01111 whole entry G12C): as the sequence (P01111 whole entry Q61R) above, with G12C, R61Q counted along it
Sequence of NRAS G12C (P62937 whole entry): as the sequence (P62937 whole entry) above
Outline: as §1

KRAS G12S = KRAS G12S (Homo sapiens (Human), UniProt P01116+P62937, G12S); assay: Ras-Raf (BRAF RBD) disruption / FRET / MOA assay, KRAS G12S; type: biochemical; conditions: Ras-Raf disruption/FRET/MOA assay; class symbols; read-out: KRAS G12S FRET data IC50
Sequence of KRAS G12S (P01116-2 other isoform, or with tags, fused parts or gaps G12S): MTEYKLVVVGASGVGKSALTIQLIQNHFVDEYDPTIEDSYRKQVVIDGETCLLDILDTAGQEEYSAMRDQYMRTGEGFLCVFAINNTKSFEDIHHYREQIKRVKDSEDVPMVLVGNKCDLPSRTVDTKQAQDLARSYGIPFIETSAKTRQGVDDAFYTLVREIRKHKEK
Sequence of KRAS G12S (P62937 whole entry): as the sequence (P62937 whole entry) above
Outline: as §1

KRAS G12V = KRAS G12V (Homo sapiens (Human), UniProt P01116+P62937, G12V); assay: Ras-Raf (BRAF RBD) disruption / FRET / MOA assay, KRAS G12V; type: biochemical; conditions: read-out: IC50* KRAS G12V FRET data
Sequence of KRAS G12V (P01116-2 other isoform, or with tags, fused parts or gaps G12V): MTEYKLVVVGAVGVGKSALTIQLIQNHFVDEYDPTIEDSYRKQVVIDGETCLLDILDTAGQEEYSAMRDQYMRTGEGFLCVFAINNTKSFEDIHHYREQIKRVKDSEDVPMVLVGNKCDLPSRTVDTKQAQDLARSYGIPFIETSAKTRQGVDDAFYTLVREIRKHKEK
Sequence of KRAS G12V (P62937 whole entry): as the sequence (P62937 whole entry) above
Outline: as §1

KRAS WT = KRAS WT (Homo sapiens (Human), UniProt P01116+P62937); assay: Ras-Raf (BRAF RBD) disruption / FRET / MOA assay, KRAS WT; type: biochemical; conditions: read-out: IC50* KRAS WT FRET data
Sequence of KRAS WT (P01116-2 other isoform, or with tags, fused parts or gaps): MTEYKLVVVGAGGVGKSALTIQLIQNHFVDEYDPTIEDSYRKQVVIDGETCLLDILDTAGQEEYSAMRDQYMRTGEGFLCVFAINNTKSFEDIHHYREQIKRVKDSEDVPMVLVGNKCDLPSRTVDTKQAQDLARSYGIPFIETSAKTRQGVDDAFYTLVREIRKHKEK
Sequence of KRAS WT (P62937 whole entry): as the sequence (P62937 whole entry) above
Outline: as §1

[1] = tested on: NCI-H358 cells (K-Ras G12C); assay: Potency assay: pERK in NCI-H358 cells; type: cell-based, human; conditions: Homo sapiens
Outline: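 Inhibition of cellular pERK after a 4 h treatment, detected by AlphaLISA or In-Cell Western. IC50 from a four-parameter concentration-response fit.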

KRAS G13D = KRAS G13D (Homo sapiens (Human), UniProt P01116+P62937, G13D); assay: Ras-Raf (BRAF RBD) disruption / FRET / MOA assay, KRAS G13D; type: biochemical; conditions: read-out: IC50* KRAS G13D FRET data
Sequence of KRAS G13D (P01116-2 other isoform, or with tags, fused parts or gaps G13D): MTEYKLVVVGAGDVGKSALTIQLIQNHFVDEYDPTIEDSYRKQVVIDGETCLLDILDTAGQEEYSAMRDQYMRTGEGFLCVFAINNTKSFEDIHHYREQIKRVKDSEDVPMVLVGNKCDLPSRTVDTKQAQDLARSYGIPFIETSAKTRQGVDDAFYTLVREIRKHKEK
Sequence of KRAS G13D (P62937 whole entry): as the sequence (P62937 whole entry) above
Outline: as §1

NRAS WT = NRAS WT (Homo sapiens (Human), UniProt P01111+P62937); assay: Ras-Raf (BRAF RBD) disruption / FRET / MOA assay, NRAS WT; type: biochemical; conditions: read-out: IC50* NRAS WT FRET data
Sequence of NRAS WT (P01111 whole entry): as the sequence (P01111 whole entry Q61R) above, with R61Q counted along it
Sequence of NRAS WT (P62937 whole entry): as the sequence (P62937 whole entry) above
Description: as §2, §3, §4, §5
as §3, with “Compound was” for “Compound is”, “allophycocyanin was” for “allophycocyanin is”, “a K-Ras:RAF” for “a Ras:RAF”, “complex were” for “complex are”

K-Ras G12C = K-Ras G12C (Homo sapiens (Human), UniProt P01116+P62937, G12C); assay: Ras-Raf (BRAF RBD) disruption / FRET / MOA assay, KRAS G12C; type: biochemical; conditions: KRAS G12C; Ras-Raf disruption/FRET/MOA assay; read-out: IC50* KRAS G12C FRET data
Sequence of K-Ras G12C (P01116-2 other isoform, or with tags, fused parts or gaps G12C): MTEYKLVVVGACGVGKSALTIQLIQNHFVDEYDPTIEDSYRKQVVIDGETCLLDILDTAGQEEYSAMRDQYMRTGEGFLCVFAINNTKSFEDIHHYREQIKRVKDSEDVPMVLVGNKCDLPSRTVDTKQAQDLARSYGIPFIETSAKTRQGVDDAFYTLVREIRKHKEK
Sequence of K-Ras G12C (P62937 whole entry): as the sequence (P62937 whole entry) above
Outline: as §1

K-Ras G13C = K-Ras G13C (Homo sapiens (Human), UniProt P01116+P62937, G13C); assay: Ras-Raf (BRAF RBD) disruption / FRET / MOA assay, KRAS G13C; type: biochemical; conditions: KRAS G13C; Ras-Raf disruption/FRET/MOA assay; read-out: IC50* KRAS G13C FRET data
Sequence of K-Ras G13C (P01116-2 other isoform, or with tags, fused parts or gaps G13C): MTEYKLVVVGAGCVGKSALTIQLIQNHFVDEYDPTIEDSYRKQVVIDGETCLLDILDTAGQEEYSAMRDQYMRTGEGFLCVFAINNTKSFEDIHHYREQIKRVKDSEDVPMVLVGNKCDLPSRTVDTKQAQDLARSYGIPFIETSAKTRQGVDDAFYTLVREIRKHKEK
Sequence of K-Ras G13C (P62937 whole entry): as the sequence (P62937 whole entry) above
Outline: as §1

[2] = NCI-H358, H358 KRAS G12C, read-out: pERK EC50

SMILES | IC50 (KRAS G12D) | IC50 (KRAS Q61H) [nM] | IC50 (NRAS Q61R) [nM] | IC50 (NRAS Q61K) [nM] | IC50 (NRAS G12C) | IC50 (KRAS G12S) | IC50 (KRAS G12V) | IC50 (KRAS WT) | EC50 [1, 2] [nM] | IC50 (KRAS G13D) | IC50 (NRAS WT) [nM] | IC50 (K-Ras G12C) | IC50 (K-Ras G13C) | EC50 ([1]; NCI-H358, read-out: pERK EC50) [nM]
C=CC(=O)N1CC[C@H](C(=O)N(C)[C@H](C(=O)N[C@H]2Cc3cccc(c3)-c3ccc4c(c3)c(c(-c3cc(N5CCN(C)CC5)cnc3[C@H](C)OC)n4CC)CC(C)(C)COC(=O)[C@@H]3CCCN(N3)C2=O)C(C)C)C1 (single isomer, unassigned) [Example A328] | 1000 to 10000 nM and > 10000 nM | 100 to 1000 | 1000 to 10000 | 1000 to 10000 | 10 to 100 nM and 1000 to 10000 nM | 100 to 1000 nM and > 10000 nM | 1000 to 10000 nM and > 10000 nM | 1000 to 10000 nM and > 10000 nM | < 5000 | 1000 to 10000 nM and > 10000 nM | 1000 to 10000 | 10 to 100 nM and 1000 to 10000 nM | 100 to 1000 nM and > 10000 nM | –
CCn1c(-c2cccnc2[C@H](C)OC)c2c3cc(ccc31)-c1cccc(c1)C[C@H](NC(=O)[C@H](C(C)C)N1CC[C@]3(CCN(C(=O)C#C[C@H]4COCCN4C)C3)C1=O)C(=O)N1CCC[C@H](N1)C(=O)OCC(C)(C)C2 (atropisomer, axis not shown) [Example A592] | > 10000 nM | 1000 to 10000 | > 10000 | > 10000 | 10 to 100 nM | 1000 to 10000 nM | 1000 to 10000 nM | > 10000 nM | – | > 10000 nM | > 10000 | 10 to 100 nM | 1000 to 10000 nM | < 5000
C=CC(=O)N1CC[C@H](C(=O)N(C)[C@H](C(=O)N[C@H]2Cc3cc(sn3)-c3ccc4c(c3)c(c(-c3cccnc3[C@H](C)OC)n4CC)CC(C)(C)COC(=O)[C@@H]3CCCN(N3)C2=O)C(C)C)C1 (atropisomer, axis not shown) [Example A340] | > 10000 nM | 100 to 1000 | 1000 to 10000 | 100 to 1000 | 100 to 1000 nM | 1000 to 10000 nM | 1000 to 10000 nM | 1000 to 10000 nM | – | 1000 to 10000 nM | 100 to 1000 | 100 to 1000 nM | 100 to 1000 nM | –

Now from value to compound, other results behind:

IC50 (KRAS G12D) | IC50 (KRAS Q61H) [nM] | IC50 (NRAS Q61R) [nM] | IC50 (NRAS Q61K) [nM] | IC50 (NRAS G12C) | IC50 (KRAS G12S) | IC50 (KRAS G12V) | IC50 (KRAS WT) | EC50 [1, 2] [nM] | IC50 (KRAS G13D) | IC50 (NRAS WT) [nM] | IC50 (K-Ras G12C) | IC50 (K-Ras G13C) | SMILES | EC50 ([1]; NCI-H358, read-out: pERK EC50) [nM]
> 10000 nM | > 10000 | > 10000 | > 10000 | 100 to 1000 nM | > 10000 nM | > 10000 nM | > 10000 nM | < 5000 | > 10000 nM | > 10000 | 100 to 1000 nM | 1000 to 10000 nM | C=CC(=O)N1CC[C@H](C(=O)N(C)[C@H](C(=O)N[C@H]2CC3=CCCN(C3)c3ccc4c(c3)c(c(-c3cccnc3[C@H](C)OC)n4CC)CC(C)(C)COC(=O)[C@@H]3CCCN(N3)C2=O)C(C)C)C1 (atropisomer, axis not shown) [Example A486] | –
> 10000 nM | > 10000 | > 10000 | > 10000 | 100 to 1000 nM | 1000 to 10000 nM | 1000 to 10000 nM | > 10000 nM | – | > 10000 nM | 1000 to 10000 | 100 to 1000 nM | 1000 to 10000 nM | C=CC(=O)N1CC[C@H](C(=O)N(C)C(C(=O)N[C@H]2C[C@H]3CN(CCO3)c3ccc4c(c3)c(c(-c3cccnc3[C@H](C)OC)n4CC)CC(C)(C)COC(=O)[C@@H]3CCCN(N3)C2=O)C(C)C)C1 (mixture of isomers) [Example A507] | –
